Activity calls are given as the source filed them. No cut-off for these calls is given here.
How the values were obtained:
[1] = physchem; settings: octanol/water, pH 7.4
[2] = physchem
Description: Dissociation constant, pKa by potentiometric titration

[3] = octanol/water
Description: Lipophilicity, ionic log P by shake flask method

[4] = physchem; settings: octanol/water
Description: Lipophilicity, neutral log P of the compound

[5] = tested on: Liver microsomes
Description: Antioxidant activity against Fe2SO4/ascorbate-induced lipid peroxidation in Wistar rat liver microsomal membrane by TBARS assay

[6] = tested on: Aorta; assay: tissue or blood; settings: Rattus norvegicus, Wistar
Description: (§1) Vasodilation activity in Wistar rat aorta assessed as relaxation of phenylephrine-induced contraction

[7] = tested on: Liver microsomes; assay: Antioxidant activity against […]/ascorbate-induced lipid peroxidation in Wistar rat liver microsomal membrane at 05 to 15 uM by TBARS assay; format: functional; settings: Microsome
[8] = tested on: Aorta
Description: as §1

For `CC1=NN(c2ccc(OCCCO[N+](=O)[O-])cc2)C(=O)C1`, which logD [1] is on record?
The logD was 1.59.

What about the pKa [2] of the same molecule?
The pKa was 7.11.

And the logPi [3]?
Its logPi is -1.07.

And the logP [4]?
The logP was 1.9.

And the IC50 [5]?
Its IC50 is 3400 nM.

And the EC50 [6]?
The EC50 was 1100 nM.

Which Activity [7] does the source give for `COCc1no[n+]([O-])c1C#N` here?
The Activity was “inactive”.

And the logP [4]?
Its logP is 0.83.

What about the EC50 [6] of the same molecule?
Its EC50 is 9.5 nM.

Which results are given for `COc1no[n+]([O-])c1-c1ccccc1`?
Activity [7]: inactive; logP [4]: 2.47; EC50 [6]: 5600 nM

For `COCc1no[n+]([O-])c1C(N)=O`, which Activity [7] is on record?
The Activity was “inactive”.

What about the logP [4] of the same molecule?
Its logP is 0.14.

And the EC50 [6]?
The EC50 was 3900 nM.

With `CC1=NN(c2ccccc2)C(=O)C1` [EDARAVONE] as the molecule, how does the logD [1] read?
Its logD is 0.78.

And the pKa [2]?
The pKa was 6.9.

What about the logP [4] of the same molecule?
The logP was 1.28.

What about the EC50 [8] of the same molecule?
The EC50 was “Not Active”.

What about the IC50 [5] of the same molecule?
Its IC50 is 17000 nM.

For `CC1=NN(c2ccc(OCCCCCCO[N+](=O)[O-])cc2)C(=O)C1`, which logD [1] is on record?
Its logD is 2.67.

What about the pKa [2] of the same molecule?
The pKa was 7.12.

And the logPi [3]?
The logPi was 0.15.

And the logP [4]?
Its logP is 3.34.

And the IC50 [5]?
Its IC50 is 2100 nM.

What about the EC50 [6] of the same molecule?
Its EC50 is 980 nM.

With `COc1ccc(N2N=C(C)CC2=O)cc1` as the molecule, how does the logD [1] read?
Its logD is 0.77.

What about the pKa [2] of the same molecule?
The pKa was 7.06.

What about the logP [4] of the same molecule?
Its logP is 1.19.

And the EC50 [8]?
The EC50 was “Not Active”.

What about the IC50 [5] of the same molecule?
The IC50 was 20000 nM.

Which logD [1] does the source give for `CC1=NN(c2ccc(OCc3no[n+]([O-])c3C#N)cc2)C(=O)C1` here?
The logD was 1.28.

What about the pKa [2] of the same molecule?
Its pKa is 7.06.

What about the logPi [3] of the same molecule?
Its logPi is -0.99.

What about the logP [4] of the same molecule?
Its logP is 1.72.

And the IC50 [5]?
The IC50 was 5800 nM.

What about the EC50 [6] of the same molecule?
The EC50 was 23 nM.

Which Activity [7] does the source give for `CCOc1no[n+]([O-])c1S(=O)(=O)c1ccccc1` here?
The Activity was “inactive”.

And the logP [4]?
Its logP is 3.15.

And the EC50 [6]?
The EC50 was 12 nM.

What does the source list for `CC1=NN(c2ccc(OCc3no[n+]([O-])c3C(N)=O)cc2)C(=O)C1`?
logD [1]: 0.48; pKa [2]: 7.08; logP [4]: 0.92; IC50 [5]: 7900 nM; EC50 [6]: 2800 nM

With `COCCCO[N+](=O)[O-]` as the molecule, how does the Activity [7] read?
Its Activity is “inactive”.

And the logP [4]?
Its logP is 1.01.

What about the EC50 [6] of the same molecule?
Its EC50 is 9600 nM.

For `CC1=NN(c2ccc(OCCCOc3no[n+]([O-])c3S(=O)(=O)c3ccccc3)cc2)C(=O)C1`, which logD [1] is on record?
Its logD is 3.16.

What about the pKa [2] of the same molecule?
Its pKa is 7.12.

And the logPi [3]?
Its logPi is 0.4.

What about the logP [4] of the same molecule?
Its logP is 3.62.

What about the IC50 [5] of the same molecule?
Its IC50 is 3800 nM.

And the EC50 [6]?
Its EC50 is 77 nM.

For `CC1=NN(c2ccc(OCCCCC(CO[N+](=O)[O-])O[N+](=O)[O-])cc2)C(=O)C1` (stereo not drawn), which logD [1] is on record?
Its logD is 2.54.

And the pKa [2]?
The pKa was 7.15.

What about the logPi [3] of the same molecule?
The logPi was 0.05.

What about the logP [4] of the same molecule?
Its logP is 3.1.

And the IC50 [5]?
The IC50 was 2900 nM.

What about the EC50 [6] of the same molecule?
Its EC50 is 680 nM.

For `COCCCCCCO[N+](=O)[O-]`, which Activity [7] is on record?
Its Activity is “inactive”.

And the logP [4]?
Its logP is 2.23.

What about the EC50 [6] of the same molecule?
Its EC50 is 1400 nM.
